Results published in patent publication US20260209297A1, “ANTIMICROBIAL PEPTIDES AND MODIFICATIONS THEREOF” (priority 2022, published 2026).
Converted amounts (≈) assume the structure as drawn. Read-outs that look alike come from different tables or passages of the source. Positions of bridges follow the written chain, without caps; N, C: chain ends. Residues, ends and D or L forms follow the SMILES beside them. No end group written: not given here.

Assays:
[1] = test system: B. cinerea; assay: MIC antifungal assay in SFM culture media (with or without added salts); assay type: cell-based, Botrytis cinerea; conditions: for antifungal activity relative to the wild-type GMA4C_AC control, B. cinerea: in vitro, low cationic conditions
[2] = test system: F. graminearum; assay type: cell-based, Fusarium graminearum; conditions: in vitro, low cationic conditions
[3] = test system: F. oxysporum; assay: MIC antifungal assay in SFM culture media; assay type: cell-based; conditions: in vitro, low cationic conditions
[4] = test system: P. capsici; assay: MIC antifungal assay in SFM culture media; assay type: cell-based; conditions: in vitro, low cationic conditions
[5] = test system: P. capsici; assay: Disease symptom reduction on tomato leaves; assay type: in vivo; conditions: compared with GMA4C_AC
From the text: Antifungal activity in planta.

[6] = test system: C. parapsilosis; assay: MIC, CLSI M27/M38, half-strength potato dextrose broth; assay type: cell-based, Candida parapsilosis; conditions: C. parapsilosis ATCC 22019; Table 8
Experimental: (§1) MICs were determined at 24-72 hours.

[7] = test system: Coccidioides sp.; assay type: cell-based; conditions: Table 8
[8] = test system: Salmonella typhimurium var. Copenhagen; assay: Antibacterial growth inhibition in Mueller-Hinton media (OD600); assay type: cell-based; conditions: 37° C. overnight
[9] = test system: Enterotoxigenic E. coli-F4; assay: as above; assay type: cell-based; conditions: 37° C. overnight
Experimental: Salmonella typhimurium var. Copenhagen, Enterotoxigenic E. coli-F4 and Listeria monocytogens (F5244) strains were grown overnight on an LB agar plate at 37_C. A small number of bacteria was scraped from the plate and added to Mueller-Hinton (MH) growth media and grown to log phase. Cells were diluted to 1-3×10^6 CFU/mL and 50 μl were added to each well in a polypropylene 96-well plate. Synthesized peptide GMA4C_V1A was diluted into 0.2% BSA, 0.01% acetic acid solution and added to the concentration of 0.2, 0.4, 0.80, 1.6, 3.25, 7.5, 15, 30 and 60 and 120 µM. Then, 50 μl of each peptide solution was added to 50 μl of bacterial cells. Plates were parafilmed and incubated at 37° C. overnight. The concentrations at which bacterial growth inhibition was determined based on the OD600 nm value at each concentration relative to the OD600 nm value of MH medium alone and that of bacterial growth in MH medium without any peptide.

[10] = test system: L. monocytogenes F5244; assay: as above; assay type: cell-based, Listeria monocytogens; conditions: 37° C. overnight
[11] = test system: Candida albicans; conditions: for MIC values (μg/ml) 100%: Table 8
[12] = test system: Candida auris; conditions: for MIC values (μg/ml) 100%: Table 8
[13] = test system: Aspergillus fumigatus; conditions: for MIC values (μg/ml) 100%: Aspergillus fumigatus AF293, Table 8
[14] = test system: Fusarium (F. oxysporum); assay: MIC, CLSI M27/M38, half-strength potato dextrose broth; assay type: cell-based; conditions: Table 8
Experimental: as §1

[15] = test system: Fusarium (F. solani); assay: as above; assay type: cell-based; conditions: Fusarium F4 (F. solani); Table 8
Experimental: as §1

[16] = test system: C. albicans; assay: Peptide or protein/Fluconazole combination MIC and FICI; conditions: combination with Fluconazole
[17] = test system: Tricophyton rubrum; assay: MIC against human nail pathogens; conditions: isolate 23014; Table 13
[18] = test system: Tricophyton metagrophytes; assay: MIC against human nail pathogens; conditions: isolate 26103; Table 13

| Compound | antifungal activity relative to the wild-type GMA4C_AC control, B. cinerea [1] | antifungal activity relative to the wild-type GMA4C_AC control, F. graminearum [2] | antifungal activity relative to the wild-type GMA4C_AC control, F. oxysporum [3] | antifungal activity relative to the wild-type GMA4C_AC control, P. capsici [4] | MIC values (μg/ml) 100% [6] | MIC values (μg/ml) 100% ([7]; Coccidioides sp. Cocci1) | MIC values (μg/ml) 100% ([7]; Coccidioides sp. Cocci2) | MIC values (μg/ml) 100% ([7]; Coccidioides sp. DI17-143) | MIC values (μg/ml) 100% ([11]; Candida albicans ATCC 90028) | MIC values (μg/ml) 100% ([11]; Candida albicans CA3) | MIC values (μg/ml) 100% ([11]; Candida albicans SC5314) | MIC values (μg/ml) 100% ([12]; Candida auris DI17-46) | MIC values (μg/ml) 100% ([12]; Candida auris DI17-47) | MIC values (μg/ml) 100% ([12]; Candida auris DI17-48) | MIC values (μg/ml) 100% [13] | also measured |
| --- | --- | --- | --- | --- | --- | --- | --- | --- | --- | --- | --- | --- | --- | --- | --- | --- |
| CC[C@H](C)[C@H](NC(=O)[C@H](CCCNC(=N)N)NC(=O)[C@@H](NC(=O)[C@H](CS)NC(=O)[C@H](Cc1ccccc1)NC(=O)[C@H](CS)NC(=O)[C@H](CCCNC(=N)N)NC(=O)[C@H](CCCNC(=N)N)NC(=O)[C@H](CCCNC(=N)N)NC(=O)[C@H](Cc1ccccc1)NC(=O)CNC(=O)[C@H](CCCCN)NC(=O)[C@H](CS)NC(=O)[C@H](CCCNC(=N)N)NC(=O)CNC(=O)CN)[C@@H](C)O)C(=O)N[C@@H](CS)C(N)=O [GMA4C_V1A] (H-GGRCKGFRRRCFCTRIC-NH2; N-terminus assumed) | equivalent | equivalent | equivalent | equivalent | 4 µg/mL (≈ 1.98 µM) | 8 µg/mL (≈ 3.96 µM) | 4 µg/mL (≈ 1.98 µM) | 8 µg/mL (≈ 3.96 µM) | 8 µg/mL (≈ 3.96 µM) | 8 µg/mL (≈ 3.96 µM) | 8 µg/mL (≈ 3.96 µM) | 8 µg/mL (≈ 3.96 µM) | 8 µg/mL (≈ 3.96 µM) | 8 µg/mL (≈ 3.96 µM) | 32 µg/mL (≈ 15.9 µM) | fungal growth inhibition at 6 μM ([1]; B. cinerea, in presence of 2 mM CaCl2, 6 μM): inhibit fungal growth; potency of activity relative to GMA4C_AC ([1]; B. cinerea, in presence of 100 mM NaCl or 100 mM KCl): 2 fold; reducing disease symptoms caused by P. capsici [5]: more effective; Concentrations (in μM) at which growth inhibition was observed, S. Typhimurium var. Copenhagen [8]: 15 to 60 µM; Concentrations (in μM) at which growth inhibition was observed, Enterotoxigenic E. coli-F4 [9]: 7.5 to 60 µM; Concentrations (in μM) at which growth inhibition was observed, L. monocytogenes F5244 [10]: 15 to 30 µM |
| CC[C@H](C)[C@H](NC(=O)[C@H](CCCNC(=N)N)NC(=O)[C@@H](NC(=O)[C@H](CS)NC(=O)[C@H](Cc1ccccc1)NC(=O)[C@H](CS)NC(=O)[C@H](CCCNC(=N)N)NC(=O)[C@H](CCCNC(=N)N)NC(=O)[C@H](CCCNC(=N)N)NC(=O)[C@H](Cc1ccccc1)NC(=O)CNC(=O)[C@H](CCCNC(=N)N)NC(=O)[C@H](CS)NC(=O)[C@H](CCCNC(=N)N)NC(=O)CNC(=O)CN)[C@@H](C)O)C(=O)N[C@@H](CS)C(N)=O [GMA4C_V2A] (H-GGRCRGFRRRCFCTRIC-NH2; N-terminus assumed) | two-fold reduction | two-fold reduction |  |  | 8 µg/mL (≈ 3.91 µM) | 8 µg/mL (≈ 3.91 µM) | 16 µg/mL (≈ 7.82 µM) | 16 µg/mL (≈ 7.82 µM) | 16 µg/mL (≈ 7.82 µM) | 16 µg/mL (≈ 7.82 µM) | 16 µg/mL (≈ 7.82 µM) | 16 µg/mL (≈ 7.82 µM) | 16 µg/mL (≈ 7.82 µM) | 16 µg/mL (≈ 7.82 µM) | 32 µg/mL (≈ 15.6 µM) | MIC values (μg/ml) 100% ([14]; Fusarium F1 (F. oxysporum)): 8 µg/mL (≈ 3.91 µM); MIC values (μg/ml) 100% ([14]; Fusarium F2 (F. oxysporum)): 16 µg/mL (≈ 7.82 µM); MIC values (μg/ml) 100% [15]: 8 µg/mL (≈ 3.91 µM) |
| CC[C@H](C)[C@H](NC(=O)[C@H](CCCNC(=N)N)NC(=O)[C@@H](NC(=O)[C@@H](NC(=O)[C@H](Cc1ccccc1)NC(=O)[C@@H](NC(=O)[C@H](CCCNC(=N)N)NC(=O)[C@H](CCCNC(=N)N)NC(=O)[C@H](CCCNC(=N)N)NC(=O)[C@H](Cc1ccccc1)NC(=O)CNC(=O)[C@H](CCCNC(=N)N)NC(=O)[C@H](CS)NC(=O)[C@H](CCCNC(=N)N)NC(=O)CNC(=O)CN)C(C)C)C(C)C)[C@@H](C)O)C(=O)N[C@@H](CS)C(N)=O [GMA4C_V3A] (H-GGRCRGFRRRVFVTRIC-NH2; N-terminus assumed) | equivalent | equivalent | equivalent | equivalent |  |  |  |  |  |  |  |  |  |  |  | Candida albicans (33795) MIC [11]: 2.8 µM; Candida auris (38883) MIC [12]: 5.6 µM; MIC in μM Aspergillus fumigatus (36843) [13]: 11.2 µM (≈ 22.8 µg/mL); Interpretation [16]: Conclusion: GMA4C_v3 shows synergistic enhancement of antifungal activity against drug resistant C. albicans in combination with Fluconazole |
| OeDef1_V3: OeDef1 variant, printed with SEQ ID NO: 769 in Table 13 (GACLKNRHSKHYGWFWYYRHCY-NH2; disulfide 3-21 (inferred)) |  |  |  |  |  |  |  |  |  |  |  |  |  |  |  | MIC in μM Aspergillus fumigatus (36843) ([13]; isolate 36843, Table 13): >7.9 µM; MIC in μM Tricophyton rubrum (23014) [17]: 4.0 µM; MIC in μM Tricophyton metagrophytes (26103) [18]: 4.0 µM |
